Assay results: patent US8987314B2, “Amide, urea or sulfone amide linked benzothiazole inhibitors of endothelial lipase” (Bristol-Myers Squibb Company, priority 2012, dated 2015)

Tests used:
hepatic lipase (HL) = hepatic lipase (HL) (Homo sapiens (Human), UniProt P11150); assay: HL assay: hepatic lipase activity with fluorescent substrate A10070 in DMPG vesicles; format: biochemical
Protocol: (§1) Endothelial lipase (EL) and hepatic lipase (HL) activities were measured using a fluorescent substrate, A10070, (Invitrogen, CA) doped into an artificial vesicle containing DMPG (Avanti Polar Lipids) as the excipient. Vesicles were prepared by combining 571 μL of 29 mM DMPG in a 1:1 mixture of MeOH and CHCl3 with 2000 μL of 1 mM A10070 in a 1:1 mixture of MeOH and CHCl3. The mixture was dried under nitrogen in multiple vials then resuspended in 20 mL total volume of 50 mM HEPES pH 8.0 buffer containing 50 mM NaCl and 0.2 mM EDTA. The sample was allowed to sit at room temperature for 15 min and then was sonicated 3×4 mins on ice with a Branson Sonicator using duty cycle 1. This preparation provides vesicles with a mole fraction of 0.11 for the FRET substrate.
(§2) The enzymatic assay was measured using 384-well white Optiplates. Each well contained 20 μL of assay buffer (50 mM HEPES pH 8.0, 50 mM NaCl and 1 mM CaCl2) and 0.25 μL of a DMSO solution containing a compound of interest. EL or HL (10 μL) was added and allowed to incubate with the compound for 30 min at 37° C. The source of EL was conditioned media obtained from HT-1080 cells that were transformed using RAGE technology (Athersys) to overexpress endogenous EL, and HL was partially purified from conditioned media obtained from COS cells overexpressing HL. The reaction was started by the addition of 10 μL of a 1:10 dilution of vesicles. The final total reaction volume was […]. The reaction rates were measured on a Gemini plate reader with an excitation wavelength of 490 nm and an emission wavelength of 530 nm. Readings were taken over a period of 60 minutes, and the slope between 300 and 900 secs of the readout was used to calculate the rate of the reaction.

Endothelial lipase (EL) = Endothelial lipase (EL) (Homo sapiens (Human), UniProt Q9Y5X9); assay: EL assay: endothelial lipase activity with fluorescent substrate A10070 in DMPG vesicles; format: biochemical
Protocol: as §1, §2

Endothelial lipase (EL), sequence (Q9Y5X9 21-500): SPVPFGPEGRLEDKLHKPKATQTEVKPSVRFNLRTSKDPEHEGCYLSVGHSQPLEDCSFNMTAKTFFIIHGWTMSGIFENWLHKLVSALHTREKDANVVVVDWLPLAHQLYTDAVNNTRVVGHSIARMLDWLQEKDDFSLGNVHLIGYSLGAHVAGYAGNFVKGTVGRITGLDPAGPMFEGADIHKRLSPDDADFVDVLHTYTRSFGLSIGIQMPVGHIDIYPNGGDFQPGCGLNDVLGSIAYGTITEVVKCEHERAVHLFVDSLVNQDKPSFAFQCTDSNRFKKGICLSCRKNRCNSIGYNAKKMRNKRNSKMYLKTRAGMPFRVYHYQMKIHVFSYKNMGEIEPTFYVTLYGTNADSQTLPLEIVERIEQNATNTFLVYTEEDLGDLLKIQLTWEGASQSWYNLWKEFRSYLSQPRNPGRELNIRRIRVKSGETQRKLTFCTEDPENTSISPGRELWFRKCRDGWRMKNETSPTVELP
hepatic lipase (HL), sequence (P11150 23-499, species assumed): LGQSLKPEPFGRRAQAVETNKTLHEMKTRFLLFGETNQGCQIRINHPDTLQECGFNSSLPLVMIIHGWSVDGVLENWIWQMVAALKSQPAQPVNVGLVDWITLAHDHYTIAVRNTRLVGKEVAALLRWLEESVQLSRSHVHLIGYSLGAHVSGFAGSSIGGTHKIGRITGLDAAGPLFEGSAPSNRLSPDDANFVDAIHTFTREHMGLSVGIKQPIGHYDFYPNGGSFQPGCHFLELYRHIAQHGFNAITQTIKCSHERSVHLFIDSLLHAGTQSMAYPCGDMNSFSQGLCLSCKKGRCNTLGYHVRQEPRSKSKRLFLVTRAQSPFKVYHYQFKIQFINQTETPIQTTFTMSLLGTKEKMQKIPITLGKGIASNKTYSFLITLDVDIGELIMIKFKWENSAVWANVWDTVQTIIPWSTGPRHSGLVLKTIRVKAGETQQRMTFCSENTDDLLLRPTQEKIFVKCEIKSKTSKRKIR

Structure (SMILES) | IC50 (hepatic lipase (HL)) [µM] | IC50 (Endothelial lipase (EL)) [µM]
COCCOc1ccc(-c2ccc3nc(C(C(=O)NCCS(N)(=O)=O)S(C)(=O)=O)sc3c2)cc1 (centres unmarked) [Example B48, 2-(6-(4-(2-methoxyethoxy)phenyl)-1,3-benzothiazol-2-yl)-2-(methylsulfonyl)-N-(2-sulfamoylethyl)acetamide] | 0.011 | < 0.01
COCCNC(=O)c1cccc(-c2ccc3nc(C(C(=O)NCCS(N)(=O)=O)S(C)(=O)=O)sc3c2)c1 (centres unmarked) [Example B49, N-(2-methoxyethyl)-3-(2-(1-(methylsulfonyl)-2-oxo-2-((2-sulfamoylethyl)a-mino)ethyl)-1,3-benzothiazol-6-yl)ben-zamide] | 0.152 | < 0.01
CS(=O)(=O)C(C(=O)NCCS(N)(=O)=O)c1nc2ccc(-c3ccc(C#N)cc3)cc2s1 (centres unmarked) [Example B50, 2-(6-(4-cyanophenyl)-1,3-benzothiazol-2-yl)-2-(methylsulfonyl)-N-(2-Sulfamoylethyl)acetamide] | 0.014 | < 0.01
CS(=O)(=O)C(C(=O)NCCS(N)(=O)=O)c1nc2ccc(-c3cccc(C#N)c3)cc2s1 (centres unmarked) [Example B51, 2-(6-(3-cyanophenyl)-1,3-benzothiazol-2-yl)-2-(methylsulfonyl)-N-(2-sulfamoylethyl)acetamide] | < 0.01 | < 0.01
CC(=O)Nc1cccc(-c2ccc3nc(C(C(=O)NCCS(N)(=O)=O)S(C)(=O)=O)sc3c2)c1 (centres unmarked) [Example B52, 2-(6-(3-acetamidophenyl)-1,3-benzothiazol-2-yl)-2-(methylsulfonyl)-N-(2-sulfamoylethyl)acetamide] | 0.066 | < 0.01
NS(=O)(=O)CCNC(=O)C(c1nc2ccc(-c3ccc(CCO)cc3)cc2s1)S(=O)(=O)CCC(F)(F)F (centres unmarked) [Example B53, 2-(6-(4-(2-hydroxyethyl)phen-yl)-1,3-benzothiazol-2-yl)-N-(2-sulfamoylethyl)-2-((3,3,3-trifluoropropyl)sul-fonyl)acetamide] | 0.152 | < 0.01
NS(=O)(=O)CCNC(=O)C(c1nc2ccc(-c3ccc(OCCN4CCCCC4)cc3)cc2s1)S(=O)(=O)CCC(F)(F)F (centres unmarked) [Example B54, 2-(6-(4-(2-(1-piperidinyl)ethoxy)phenyl)-1,3-benzothiazol-2-yl)-N-(2-sulfamoylethyl)-2-((3,3.3-trifluoropropyl)sul-fonyl)acetamide] | 0.023 | < 0.01
CC(=O)Nc1ccc(-c2ccc3nc(C(C(=O)NCCS(N)(=O)=O)S(=O)(=O)CCC(F)(F)F)sc3c2)cc1 (centres unmarked) [Example B55, 2-(6-(4-acetamidophenyl)-1,3-benzothiazol-2-yl)-N-(2-sulfamoylethyl)-2-((3,3,3-trifluoropropyl)sul-fonyl)acetamide] | 0.055 | < 0.01
CS(=O)(=O)C(C(=O)NCCS(N)(=O)=O)c1nc2ccc(-c3ccc(CO)cc3)cc2s1 (centres unmarked) [Example B56, 2-(6-(4-(hydroxymethyl)phen-yl)-1,3-benzothiazol-2-yl)-2-(methylsulfonyl)-N-(2-sulfamoylethyl)a-cetamide] | 0.122 | < 0.01
CS(=O)(=O)C(C(=O)NCCS(N)(=O)=O)c1nc2ccc(-c3ccc(S(=O)(=O)NCCO)cc3)cc2s1 (centres unmarked) [Example B57, 2-(6-(4-((2-hydroxyeth-yl)sulfamoyl)phenyl)-1,3-benzothiazol-2-yl)-2-(methylsulfonyl)-N-(2-sulfamoylethyl)acetamide] | 0.144 | < 0.01
CS(=O)(=O)C(C(=O)NCCS(N)(=O)=O)c1nc2ccc(-c3cccc(CCO)c3)cc2s1 (centres unmarked) [Example B58, 2-(6-(3-(2-hydroxyethyl)phenyl)-1,3-benzothiazol-2-yl)-2-(methylsulfonyl)-N-(2-sulfamoylethyl)acetamide] | 0.036 | < 0.01
NS(=O)(=O)CCNC(=O)C(c1nc2ccc(-c3ccc(C(=O)NCCO)cc3)cc2s1)S(=O)(=O)CC1CC1 (centres unmarked) [Example B59, 4-(2-(1-((cyclopropylmeth-yl)sulfonyl)-2-oxo-2-((2-sulfamoylethyl)amino)eth-yl)-1,3-benzothiazol-6-yl)-N-(2-hydroxyethyl)ben-zamide] | 0.102 | < 0.01
NS(=O)(=O)CCNC(=O)C(c1nc2ccc(-c3ccc(CCO)cc3)cc2s1)S(=O)(=O)CC1CC1 (centres unmarked) [Example B60, 2-((cyclopropylmethyl)sul-fonyl)-2-(6-(4-(2-hydroxyethyl)phenyl)-1,3-benzothiazol-2-yl)-N-(2-sulfamoylethyl)acetamide] | 0.061 | < 0.01
CN1CCOc2cc(-c3ccc4nc(C(C(=O)NCCS(N)(=O)=O)S(C)(=O)=O)sc4c3)ccc21 (centres unmarked) [Example B61, 2-(6-(4-methyl-3,4-dihydro-2H-1,4-benzoxazin-7-yl)-1,3-benzothiazol-2-yl)-2-(methylsulfonyl)-N-(2-sulfamoylethyl)acetamide] | 0.05 | < 0.01
CS(=O)(=O)C(C(=O)NCCS(N)(=O)=O)c1nc2ccc(-c3cccc(N4CCCC4)c3)cc2s1 (centres unmarked) [Example B62, 2-(methylsulfonyl)-2-(6-(3-(1-pyrrolidinyl)phenyl)-1,3-benzothiazol-2-yl)-N-(2-sulfamoylethyl)a-cetamide] | 0.001 | 0.0012
COCc1ccc(-c2ccc3nc(C(C(=O)NCCS(N)(=O)=O)S(C)(=O)=O)sc3c2)cc1 (centres unmarked) [Example B63, 2-(6-(4-(methoxymethyl)phen-yl)-1,3-benzothiazol-2-yl)-2-(methylsulfonyl)-N-(2-sulfamoylethyl)a-cetamide] | 0.0026 | 0.0005
COCCOC(=O)Nc1ccc(-c2ccc3nc(C(C(=O)NCCS(N)(=O)=O)S(C)(=O)=O)sc3c2)cc1 (centres unmarked) [Example B64, 2-methoxyethyl(4-(2-(1-(methylsulfonyl)-2-oxo-2-((2-sulfamoylethyl)amino)eth-yl)-1,3-benzothiazol-6-yl)phenyl)carbamate] | 0.0019 | 0.0005
NS(=O)(=O)CCNC(=O)C(c1nc2ccc(-c3ccc(C(=O)NCC(F)(F)F)cc3)cc2s1)S(=O)(=O)Cc1ccc(F)cc1 (centres unmarked) [Example B65, 4-(2-(1-((4-fluorobenzyl)sul-fonyl)-2-oxo-2-((2-sulfamoylethyl)amino)ethyl)-1,3-benzothiazol-6-yl)-N-(2,2,2-trifluoroethyl)ben-zamide] | 0.061 | < 0.01
CC(C)Cn1cc(-c2ccc3nc(C(C(=O)NCCS(N)(=O)=O)S(C)(=O)=O)sc3c2)cn1 (centres unmarked) [Example B67, 2-[6-(1-isobutyl-1H-pyrazol-4-yl)-1,3-benzothiazol-2-yl]-2-(methylsulfonyl)-N-(2-sulfamoylethyl)acetamide] | 0.041 | < 0.01
CS(=O)(=O)C(C(=O)NCCS(N)(=O)=O)c1nc2ccc(-c3cnn(Cc4ccccc4)c3)cc2s1 (centres unmarked) [Example B68, 2-[6-(1-benzyl-1H-pyrazol-4-yl)-1,3-benzothiazol-2-yl]-2-(methylsulfonyl)-N-(2-sulfamoylethyl)a-cetamide] | < 0.01 | < 0.01
NS(=O)(=O)CCNC(=O)C(c1nc2ccc(-c3cnn(CCN4CCOCC4)c3)cc2s1)S(=O)(=O)CCC(F)(F)F (centres unmarked) [Example B69, 2-(6-(1-(2-(4-morpholinyl)eth-yl)-1H-pyrazol-4-yl)-1,3-benzothiazol-2-yl)-N-(2-sulfamoylethyl)-2-((3,3,3-trifluoropropyl)sul-fonyl)acetamide] | 0.612 | < 0.01
COCCS(=O)(=O)C(C(=O)NCCS(N)(=O)=O)c1nc2ccc(-c3ccc(NC(=O)OC(C)(C)C)cc3)cc2s1 (centres unmarked) [Example B70, tert-butyl (4-(2-(1-((2-methoxyethyl)sulfonyl)-2-oxo-2-((2-sulfamoylethyl)a-mino)ethyl)-1,3-benzothiazol-6-yl)phenyl)car-bamate] | < 0.01 | < 0.01
COCCS(=O)(=O)C(C(=O)NCCS(N)(=O)=O)c1nc2ccc(-c3ccc(NC(=O)OC)cc3)cc2s1 (centres unmarked) [Example B71, methyl (4-(2-(1-((2-methoxyethyl)sulfonyl)-2-oxo-2-((2-sulfamoylethyl)a-mino)ethyl)-1,3-benzothiazol-6-yl)phenyl)car-bamate] | < 0.01 | < 0.01
NS(=O)(=O)CCNC(=O)C(c1nc2ccc(-c3ccnc(F)c3)cc2s1)S(=O)(=O)CCC(F)(F)F (centres unmarked) [Example B72, 2-(6-(2-fluoro-4-pyridinyl)-1,3-benzothiazol-2-yl)-N-(2-sulfamoylethyl)-2-((3,3,3-trifluoropropyl)sulfonyl)a-cetamide] | 0.068 | < 0.01
NS(=O)(=O)CCNC(=O)C(c1nc2ccc(-c3cnn(CCN4CCOCC4)c3)cc2s1)S(=O)(=O)Cc1ccc(C(F)(F)F)cc1 (centres unmarked) [Example B73, 2-(6-(1-(2-(4-morpholinyl)ethyl)-1H-pyrazol-4-yl)-1,3-benzothiazol-2-yl)-N-(2-sulfamoylethyl)-2-((4-(trifluoromethyl)benzyl)sul-fonyl)acetamide] | 15.9 | < 0.01
